The supplement of paper PMC10307832

Legend:
Experiment in all cases: relative viability (nuclei count vs DMSO), 5 days (fraction); higher = more cells survive
NCI-H1437 = test system: NCI-H1437
Method in brief: (§1)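 One day after seeding in 1536-well plates, lung cancer cell lines were dosed by pin tool. Dosing was either single-drug or a fixed anchor-drug dose plus five library-drug doses (not always all listed) in √10 steps. After 5 days, nuclei were stained in one fix-and-stain step and counted on 4× images, and relative viability is the nuclei count of treated wells over that of vehicle wells, given as the median of duplicate plates.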

NCI-H1650 = test system: NCI-H1650
Method in brief: as §1

NCI-H1666 = test system: NCI-H1666
Method in brief: as §1

NCI-H2009 = test system: NCI-H2009
Method in brief: as §1

NCI-H2170 = test system: NCI-H2170
Method in brief: as §1

NCI-H3122 = test system: NCI-H3122
Method in brief: as §1

NCI-H441 = test system: NCI-H441
Method in brief: as §1

NCI-H661 = test system: NCI-H661
Method in brief: as §1

NCI-H727 = test system: NCI-H727
Method in brief: as §1

NCI-H838 = test system: NCI-H838
Method in brief: as §1

PC-14 = test system: PC-14
Method in brief: as §1

SW 900 = test system: SW 900
Method in brief: as §1

Compound: NC(=O)Nc1cc(-c2cccc(F)c2)sc1C(=O)N[C@H]1CCCNC1 [AZD7762] + Cc1nc(Nc2ncc(C(=O)Nc3c(C)cccc3Cl)s2)cc(N2CCN(CCO)CC2)n1 [Dasatinib] (partner 0.075 µM)
- relative viability (NCI-H1437; first compound 0.1 µM): 0.427
- relative viability (NCI-H1437; first compound 0.3162 µM): 0.286
- relative viability (NCI-H1437; first compound 1 µM): 0.307
- relative viability (NCI-H1650; first compound 0.01 µM): 0.313
- relative viability (NCI-H1650; first compound 0.03162 µM): 0.311
- relative viability (NCI-H1650; first compound 0.1 µM): 0.314
- relative viability (NCI-H1650; first compound 0.3162 µM): 0.264
- relative viability (NCI-H1650; first compound 1 µM): 0.19
- relative viability (NCI-H1666; first compound 0.01 µM): 0.909
- relative viability (NCI-H1666; first compound 0.03162 µM): 0.88
- relative viability (NCI-H1666; first compound 0.1 µM): 0.838
- relative viability (NCI-H1666; first compound 0.3162 µM): 0.593
- relative viability (NCI-H1666; first compound 1 µM): 0.594
- relative viability (NCI-H2009; first compound 0.01 µM): 0.334
- relative viability (NCI-H2009; first compound 0.03162 µM): 0.287
- relative viability (NCI-H2009; first compound 0.1 µM): 0.342
- relative viability (NCI-H2009; first compound 0.3162 µM): 0.282
- relative viability (NCI-H2009; first compound 1 µM): 0.181
- relative viability (NCI-H2170; first compound 0.01 µM): 0.602
- relative viability (NCI-H2170; first compound 0.03162 µM): 0.584
- relative viability (NCI-H2170; first compound 0.1 µM): 0.507
- relative viability (NCI-H2170; first compound 0.3162 µM): 0.529
- relative viability (NCI-H2170; first compound 1 µM): 0.401
- relative viability (NCI-H3122; first compound 0.01 µM): 0.893
- relative viability (NCI-H3122; first compound 0.03162 µM): 0.739
- relative viability (NCI-H3122; first compound 0.1 µM): 0.823
- relative viability (NCI-H3122; first compound 0.3162 µM): 0.544
- relative viability (NCI-H3122; first compound 1 µM): 0.625
- relative viability (NCI-H441; first compound 0.01 µM): 0.773
- relative viability (NCI-H441; first compound 0.03162 µM): 0.68
- relative viability (NCI-H441; first compound 0.1 µM): 0.555
- relative viability (NCI-H441; first compound 0.3162 µM): 0.556
- relative viability (NCI-H441; first compound 1 µM): 0.384
- relative viability (NCI-H661; first compound 0.01 µM): 0.753
- relative viability (NCI-H661; first compound 0.03162 µM): 0.808
- relative viability (NCI-H661; first compound 0.1 µM): 0.575
- relative viability (NCI-H661; first compound 0.3162 µM): 0.468
- relative viability (NCI-H661; first compound 1 µM): 0.296
- relative viability (NCI-H727; first compound 0.01 µM): 0.374
- relative viability (NCI-H727; first compound 0.03162 µM): 0.422
- relative viability (NCI-H727; first compound 0.1 µM): 0.35
- relative viability (NCI-H727; first compound 0.3162 µM): 0.284
- relative viability (NCI-H727; first compound 1 µM): 0.191
- relative viability (NCI-H838; first compound 0.01 µM): 0.322
- relative viability (NCI-H838; first compound 0.03162 µM): 0.276
- relative viability (NCI-H838; first compound 0.1 µM): 0.258
- relative viability (NCI-H838; first compound 0.3162 µM): 0.251
- relative viability (NCI-H838; first compound 1 µM): 0.24
- relative viability (PC-14; first compound 0.01 µM): 0.281
- relative viability (PC-14; first compound 0.03162 µM): 0.254
- relative viability (PC-14; first compound 0.1 µM): 0.211
- relative viability (PC-14; first compound 0.3162 µM): 0.0804
- relative viability (PC-14; first compound 1 µM): 0.0213
- relative viability (SW 900; first compound 0.01 µM): 0.421
- relative viability (SW 900; first compound 0.03162 µM): 0.776
- relative viability (SW 900; first compound 0.1 µM): 0.625
- relative viability (SW 900; first compound 0.3162 µM): 0.674
- relative viability (SW 900; first compound 1 µM): 0.165
